Experimental data: patent US12030940B2, “Immunotherapeutic tumor treatment method” (Nektar Therapeutics, priority 2017, dated 2024)

Tested on: B16F10 mouse melanoma tumors
Experiment: Immune cells in tumor microenvironment by flow cytometry, subcutaneous B16F10 melanoma mice
Assay type: in vivo

aldesleukin
activated natural killer (NK) cells (5 and 7 days after treatment initiation): increased
ratio of CD8/Treg in the tumor (by day 7, single dose RSLAIL-2 or 5 doses aldesleukin): 18
total and memory CD8 T cells as percentage of tumor-infiltrating lymphocytes (relative to vehicle): transient
percentage of Tregs (FoxP3+ subset of CD4) in tumor (relative to vehicle, days 5, 7, 10): modest
